Assay results from the supplement of paper PMC11061612.

Experiments:
[1] = system: L-540 (Hodgkin's Lymphoma); assay: combination Emax (second highest fraction inhibited in the dose matrix, 72 h); higher = more inhibition; extreme values may be limits of the assay
Summary of the method: (§1)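 Cell lines in DMEM/F12 or RPMI with 10% FBS were plated in 1536-well plates, held 24 hours at 37°C, 5% CO2, then given two-drug dose matrices for 72 hours (DMSO typically 0.2%). Viability was read by CellTiter-Glo 2.0 luminescence and scaled as inhibition from 0 (vehicle wells) to 1 (blank wells). Combination Emax is the second-highest inhibition in the matrix; Bliss excess is observed combination effect minus expected EA + EB − EA·EB, EA and EB being single-agent effects.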

[2] = system: BFTC-905 (Bladder Carcinoma); assay: as above
Summary of the method: as §1

[3] = system: BL-41 (Burkitt's Lymphoma); assay: as above
Summary of the method: as §1

NCI-H2818 (Mesothelioma) [4] = assay: as above
Summary of the method: as §1

[5] = system: DND-41 (T-Lymphoblastic Leukemia); assay: as above
Summary of the method: as §1

[6] = system: GR-ST (B-Lymphoblastic Leukemia); assay: as above
Summary of the method: as §1

[7] = system: K-562 (Chronic Myelogenous Leukemia); assay: as above
Summary of the method: as §1

[8] = system: SW1417 (Colorectal Carcinoma); assay: as above
Summary of the method: as §1

[9] = system: NCI-H1792 (Lung Adenocarcinoma); assay: as above
Summary of the method: as §1

[10] = system: CAMA-1 (Breast Carcinoma); assay: as above
Summary of the method: as §1

[11] = system: SR (Other Blood Carcinomas); assay: as above
Summary of the method: as §1

ES1 (Ewing's Sarcoma) [12] = assay: as above
Summary of the method: as §1

WM-115 (Melanoma) [13] = assay: as above
Summary of the method: as §1

[14] = system: SW837 (Colorectal Carcinoma); assay: as above
Summary of the method: as §1

ES8 (Ewing's Sarcoma) [15] = assay: as above
Summary of the method: as §1

[16] = system: MKN28 (Gastric Carcinoma); assay: as above
Summary of the method: as §1

WIL2-NS (Non-Cancerous) [17] = assay: as above
Summary of the method: as §1

[18] = system: L-540 (Hodgkin's Lymphoma); assay: Bliss excess, mean over the matrix (fraction); higher = more synergy
Summary of the method: as §1

[19] = system: BFTC-905 (Bladder Carcinoma); assay: as above
Summary of the method: as §1

[20] = system: BL-41 (Burkitt's Lymphoma); assay: as above
Summary of the method: as §1

NCI-H2818 (Mesothelioma) [21] = assay: as above
Summary of the method: as §1

[22] = system: DND-41 (T-Lymphoblastic Leukemia); assay: as above
Summary of the method: as §1

[23] = system: GR-ST (B-Lymphoblastic Leukemia); assay: as above
Summary of the method: as §1

[24] = system: K-562 (Chronic Myelogenous Leukemia); assay: as above
Summary of the method: as §1

[25] = system: SW1417 (Colorectal Carcinoma); assay: as above
Summary of the method: as §1

[26] = system: NCI-H1792 (Lung Adenocarcinoma); assay: as above
Summary of the method: as §1

[27] = system: CAMA-1 (Breast Carcinoma); assay: as above
Summary of the method: as §1

[28] = system: SR (Other Blood Carcinomas); assay: as above
Summary of the method: as §1

ES1 (Ewing's Sarcoma) [29] = assay: as above
Summary of the method: as §1

WM-115 (Melanoma) [30] = assay: as above
Summary of the method: as §1

[31] = system: SW837 (Colorectal Carcinoma); assay: as above
Summary of the method: as §1

ES8 (Ewing's Sarcoma) [32] = assay: as above
Summary of the method: as §1

[33] = system: MKN28 (Gastric Carcinoma); assay: as above
Summary of the method: as §1

WIL2-NS (Non-Cancerous) [34] = assay: as above
Summary of the method: as §1
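Wherever Bliss excess, mean over the matrix is given: after 72 h of two-drug dosing.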

CN(CCO)CC[C@H](CSc1ccccc1)Nc1ccc(S(=O)(=O)NC(=O)c2ccc(N3CCC([C@@H](O)c4ccccc4-c4ccc(Cl)cc4)CC3)cc2)cc1S(=O)(=O)C(F)(F)F [AZD4320] + Nc1ccn([C@@H]2O[C@H](CO)[C@@H](O)C2(F)F)c(=O)n1 [Gemcitabine] (first compound max 1 µM, 7x7, partner max 0.3 µM)
combination Emax [1]: 0.951
combination Emax [2]: 0.9
combination Emax [3]: 1
combination Emax (NCI-H2818 (Mesothelioma) [4]): 0.717
combination Emax [5]: 1
combination Emax [6]: 0.765
combination Emax [7]: 0.353
combination Emax [8]: 0.49
combination Emax [9]: 0.823
combination Emax [10]: 0.651
combination Emax [11]: 1
combination Emax (ES1 (Ewing's Sarcoma) [12]): 1
combination Emax (WM-115 (Melanoma) [13]): 0.688
combination Emax [14]: 0.475
combination Emax (ES8 (Ewing's Sarcoma) [15]): 1
combination Emax [16]: 0.283
combination Emax (WIL2-NS (Non-Cancerous) [17]): 0.987
Bliss excess [18]: -0.0365
Bliss excess [19]: 0.0207
Bliss excess [20]: -0.0094
Bliss excess (NCI-H2818 (Mesothelioma) [21]): 0.0008
Bliss excess [22]: 0.0375
Bliss excess [23]: -0.0009
Bliss excess [24]: 0.0054
Bliss excess [25]: -0.0377
Bliss excess [26]: 0.0469
Bliss excess [27]: 0.063
Bliss excess [28]: 0.053
Bliss excess (ES1 (Ewing's Sarcoma) [29]): -0.0239
Bliss excess (WM-115 (Melanoma) [30]): 0.0125
Bliss excess [31]: -0.0331
Bliss excess (ES8 (Ewing's Sarcoma) [32]): 0.0312
Bliss excess [33]: -0.0338
Bliss excess (WIL2-NS (Non-Cancerous) [34]): 0.0107

Cc1c2c(nn1C)CSCc1cc(n(C)n1)CSc1cc(c3ccccc3c1)OCCCc1c(C(=O)O)n(C)c3c-2c(Cl)ccc13 [AZD5991] + CC(=O)O[C@H]1C(=O)[C@@]2(C)[C@H]([C@H](OC(=O)c3ccccc3)[C@]3(O)C[C@H](OC(=O)[C@H](O)[C@@H](NC(=O)c4ccccc4)c4ccccc4)C(C)=C1C3(C)C)[C@]1(OC(C)=O)CO[C@@H]1C[C@@H]2O [Paclitaxel] (first compound max 1 µM, 7x7, partner max 3 µM)
combination Emax [1]: 1
combination Emax [2]: 0.975
combination Emax [3]: 1
combination Emax (NCI-H2818 (Mesothelioma) [4]): 0.599
combination Emax [5]: 0.251
combination Emax [6]: 0.805
combination Emax [7]: 0.877
combination Emax [8]: 0.529
combination Emax [9]: 0.959
combination Emax [10]: 0.957
combination Emax [11]: 1
combination Emax (ES1 (Ewing's Sarcoma) [12]): 1
combination Emax (WM-115 (Melanoma) [13]): 0.631
combination Emax [14]: 0.62
combination Emax (ES8 (Ewing's Sarcoma) [15]): 1
combination Emax [16]: 0.49
combination Emax (WIL2-NS (Non-Cancerous) [17]): 0.824
Bliss excess [18]: 0.0087
Bliss excess [19]: 0.0108
Bliss excess [20]: -0.0098
Bliss excess (NCI-H2818 (Mesothelioma) [21]): -0.0054
Bliss excess [22]: 0.0348
Bliss excess [23]: -0.0628
Bliss excess [24]: -0.0245
Bliss excess [25]: 0.0164
Bliss excess [26]: -0.0037
Bliss excess [27]: 0.117
Bliss excess [28]: 0.0191
Bliss excess (ES1 (Ewing's Sarcoma) [29]): -0.0419
Bliss excess (WM-115 (Melanoma) [30]): -0.0392
Bliss excess [31]: -0.0327
Bliss excess (ES8 (Ewing's Sarcoma) [32]): 0.0091
Bliss excess [33]: -0.011
Bliss excess (WIL2-NS (Non-Cancerous) [34]): -0.137

C=CCn1c(=O)c2cnc(Nc3ccc(N4CCN(C)CC4)cc3)nc2n1-c1cccc(C(C)(C)O)n1 [AZD1775] + Nc1ccn([C@@H]2O[C@H](CO)[C@@H](O)C2(F)F)c(=O)n1 [Gemcitabine] (first compound max 1 µM, partner max 0.3 µM)
combination Emax [1]: 0.968
combination Emax [2]: 0.836
combination Emax [3]: 1
combination Emax (NCI-H2818 (Mesothelioma) [4]): 0.44
combination Emax [5]: 0.943
combination Emax [6]: 0.855
combination Emax [7]: 0.869
combination Emax [8]: 0.663
combination Emax [9]: 0.878
combination Emax [10]: 0.534
combination Emax [11]: 1
combination Emax (ES1 (Ewing's Sarcoma) [12]): 1
combination Emax (WM-115 (Melanoma) [13]): 0.459
combination Emax [14]: 0.691
combination Emax (ES8 (Ewing's Sarcoma) [15]): 1
combination Emax [16]: 0.552
combination Emax (WIL2-NS (Non-Cancerous) [17]): 0.973
Bliss excess [18]: 0.0052
Bliss excess [19]: -0.0015
Bliss excess [20]: -0.0067
Bliss excess (NCI-H2818 (Mesothelioma) [21]): -0.0333
Bliss excess [22]: 0.0256
Bliss excess [23]: -0.0072
Bliss excess [24]: 0.0554
Bliss excess [25]: 0.0353
Bliss excess [26]: -0.0287
Bliss excess [27]: 0.0354
Bliss excess [28]: 0.0344
Bliss excess (ES1 (Ewing's Sarcoma) [29]): 0.0471
Bliss excess (WM-115 (Melanoma) [30]): 0.0368
Bliss excess [31]: 0.0269
Bliss excess (ES8 (Ewing's Sarcoma) [32]): 0.0248
Bliss excess [33]: 0.0781
Bliss excess (WIL2-NS (Non-Cancerous) [34]): 0.0149

Cc1c2c(nn1C)CSCc1cc(n(C)n1)CSc1cc(c3ccccc3c1)OCCCc1c(C(=O)O)n(C)c3c-2c(Cl)ccc13 [AZD5991] + Nc1ccn([C@@H]2O[C@H](CO)[C@@H](O)C2(F)F)c(=O)n1 [Gemcitabine] (first compound max 1 µM, 7x7, partner max 0.3 µM)
combination Emax [1]: 1
combination Emax [2]: 0.909
combination Emax [3]: 1
combination Emax (NCI-H2818 (Mesothelioma) [4]): 0.358
combination Emax [5]: 0.848
combination Emax [6]: 0.791
combination Emax [7]: 0.222
combination Emax [8]: 0.332
combination Emax [9]: 0.774
combination Emax [10]: 0.942
combination Emax [11]: 0.991
combination Emax (ES1 (Ewing's Sarcoma) [12]): 1
combination Emax (WM-115 (Melanoma) [13]): 0.431
combination Emax [14]: 0.273
combination Emax (ES8 (Ewing's Sarcoma) [15]): 1
combination Emax [16]: 0.161
combination Emax (WIL2-NS (Non-Cancerous) [17]): 0.942
Bliss excess [18]: 0.0162
Bliss excess [19]: -0.0194
Bliss excess [20]: -0.0263
Bliss excess (NCI-H2818 (Mesothelioma) [21]): -0.0771
Bliss excess [22]: 0.021
Bliss excess [23]: -0.0516
Bliss excess [24]: 0.0045
Bliss excess [25]: 0.0394
Bliss excess [26]: -0.0308
Bliss excess [27]: 0.133
Bliss excess [28]: 0.0073
Bliss excess (ES1 (Ewing's Sarcoma) [29]): 0.0102
Bliss excess (WM-115 (Melanoma) [30]): -0.0572
Bliss excess [31]: -0.0606
Bliss excess (ES8 (Ewing's Sarcoma) [32]): -0.0121
Bliss excess [33]: -0.0367
Bliss excess (WIL2-NS (Non-Cancerous) [34]): -0.0263

O=C(c1cc(Cc2n[nH]c(=O)c3ccccc23)ccc1F)N1CCN(C(=O)C2CC2)CC1 [Olaparib] + Cc1c2c(nn1C)CSCc1cc(n(C)n1)CSc1cc(c3ccccc3c1)OCCCc1c(C(=O)O)n(C)c3c-2c(Cl)ccc13 [AZD5991] (first compound max 10 µM, 7x7, partner max 1 µM)
combination Emax [1]: 1
combination Emax [2]: 0.178
combination Emax [3]: 1
combination Emax (NCI-H2818 (Mesothelioma) [4]): 0.169
combination Emax [5]: 0.174
combination Emax [6]: 0.515
combination Emax [7]: 0.0695
combination Emax [8]: 0.0852
combination Emax [9]: 0.201
combination Emax [10]: 0.706
combination Emax [11]: 0.943
combination Emax (ES1 (Ewing's Sarcoma) [12]): 0.98
combination Emax (WM-115 (Melanoma) [13]): 0.146
combination Emax [14]: 0.136
combination Emax (ES8 (Ewing's Sarcoma) [15]): 0.958
combination Emax [16]: 0.0875
combination Emax (WIL2-NS (Non-Cancerous) [17]): 0.299
Bliss excess [18]: 0.0143
Bliss excess [19]: -0.0279
Bliss excess [20]: 0.0012
Bliss excess (NCI-H2818 (Mesothelioma) [21]): -0.0446
Bliss excess [22]: -0.0059
Bliss excess [23]: -0.0352
Bliss excess [24]: -0.0125
Bliss excess [25]: -0.0315
Bliss excess [26]: -0.041
Bliss excess [27]: 0.0094
Bliss excess [28]: 0.0384
Bliss excess (ES1 (Ewing's Sarcoma) [29]): 0.0139
Bliss excess (WM-115 (Melanoma) [30]): -0.0678
Bliss excess [31]: -0.0524
Bliss excess (ES8 (Ewing's Sarcoma) [32]): -0.0085
Bliss excess [33]: -0.0498
Bliss excess (WIL2-NS (Non-Cancerous) [34]): -0.0181
